Here are results for 33 molecules from patent US4888347A, “Use of specific N-methyl-D-aspartate receptor antagonists in the prevention and treatment of neurodegeneration” (Merck Sharp & Dohme Limited, priority 1986, dated 1989).

pKi: −log10 of the molar value. Like-named read-outs stand apart in the source and are kept apart here.

The subject of experiment [1] is gerbils (neuronal degeneration in the hippocampus). Description: Gerbil ischaemia, 10 minute unilateral carotid artery occlusion, neuronal degeneration in hippocampus. It is filed as in vivo. The settings on record: 10 min occlusion. The protocol:
(§1) (a) Ischaemia was induced in gerbils by 10 or 30 minute unilateral occlusion of the carotid artery. Restoration of blood flow after occlusion was checked visually and the animals were allowed to survive for 4 days. The extent of neuronal degeneration in the hippocampus was assessed. Test animals were treated by administering MK-801 at doses of 1 and 10 mg/kg (i.p.) one hour prior to artery occulsion.

Experiment [2] concerns gerbil hippocampus calcium levels. The experiment in a line: Prevention of increases in calcium levels in gerbil hippocampus following bilateral artery occlusion. The experiment is classed as in vivo. The text has this: (d) The neuroprotective activity of compounds for use in accordance with the invention has also been determined by measuring the ability of the compounds to prevent increases in calcium levels in the gerbil hippocampus following bilateral artery occlusion.

Experiment [3] relates to NMDA receptor mediated events on central neurons. The experiment in a line: Cortical slices from rats pretreated with MK-801, responses to NMDA. The experiment is classed as in vivo, rat. As to conditions: slices from rats pretreated 1 mg/kg i.p. 2 hours before sacrifice, vs untreated animals. The protocol:
(§2) The responses to NMDA and quisqualate were examined on cortical slices from 4 rats which had been pretreated with MK-801 (1 mg/kg, i.p) 2 hours before they were sacrificed. Responses to NMDA were markedly depressed resulting in a shift to the right of the NMDA dose-response curve of approximately 2.4 fold when compared to the mean NMDA dose-response curved from untreated animals.

Experiment [4] concerns gerbils (neuronal degeneration in the hippocampus). Description: Gerbil ischaemia, 5 minute occlusion of both carotid arteries, neuronal degeneration in hippocampus. The experiment is classed as in vivo. The protocol:
(c) Ischaemia was induced in gerbils by 5 minute occlusion of both carotid arteries. Restoration of blood flow after occlusion was checked visually and the animals allowed to survive for 4 days. The extent of neuronal degeneration in the hippocampus was measured. Test animals were treated by administering MK-801 at doses of 1, 3 and 10 mg/kg (i.p.) one hour prior to occlusion.

The subject of experiment [5] is responses to quisqualate. Description: Rat cortical slice, responses to quisqualate. It is filed as cell-based. As to conditions: doses of up to 30 μM. On the procedure:
(§3) The effects of MK-801 and its analogs on responses to NMDA and quisqualate were assessed using the rat cortical slice as described by Harrison et al., Brit. J. Pharmacol, 84, 381-391 (1985). Cortical neurons in this preparation are depolarized by bath applications of NMDA. MK-801 produces a dose dependent depression of NMDA responses with a threshold dose of about 100 nM and complete suppression of responses at 1 μM.

Experiment [6] concerns the target N-methyl-D-aspartate (NMDA) receptors ([3H]-MK-801 binding). The experiment in a line: Displacement of [3H]-MK-801 binding, crude synaptosomal membrane fraction (P2) from rat cerebral cortex. As to conditions: displacement of [3H]-MK-801, rat cerebral cortex membranes. On the procedure:
The compounds useful in the novel method of treatment of this invention bind with a high affinity and in a reversible and saturable manner to membranes from rat brain cortex. In addition these useful compounds potently and selectively block responses to NMDA in a brain slice from rate cortex, the antagonism apparently being non-competitive.
Binding of [^3 H]-MK-801 to rat brain in vitro was conducted in a crude synaptosomal membrane fraction (P2) prepared from rat cerebral cortex according to a modified method of Hulme et al, Molecular Pharmocology 14, 737-750 (1978).

In experiment [7] the test system is gerbils (neuronal damage in the hippocampus). The experiment in a line: Gerbil right carotid artery occlusion 10 minutes, repeated MK-801 dosing, neuronal damage in hippocampus. It is filed as in vivo. As to conditions: 1 mg/kg i.p. one hour before, then 1, 3, 5, 10 and 15 hours following 10 min occlusion. On the procedure: (b) The right carotid artery of gerbils was occluded for 10 minutes and MK-801 at a dose of 1 mg/kg (i.p.) administered one hour before, then 1, 3, 5, 10 and 15 hours following occlusion. The animals were allowed to survive for 4 days and the extent of neuronal damage in the hippocampus was assessed.

Another experiment deals with gerbils. The experiment in a line: Gerbil ischaemia, 30 minute unilateral carotid artery occlusion, survival. It is filed as in vivo. As to conditions: 30 min occlusion. On the procedure: as §1
Experiment [8] concerns responses to quisqualate. Description: Cortical slices from rats pretreated with MK-801, responses to quisqualate. The experiment is classed as in vivo, rat. The settings on record: slices from rats pretreated 1 mg/kg i.p. 2 hours before sacrifice. On the procedure:
as §2

A further experiment concerns responses to kainate. Description: Rat cortical slice, responses to kainate. The experiment is classed as cell-based. The settings on record: doses of up to 30 μM.
Experiment [9] concerns NMDA responses of cortical neurons (NMDA receptor). Description: Rat cortical slice, responses to NMDA. The settings on record: read-out: Apparent Potency as NMDA Antagonist Kb. The experiment is classed as cell-based. On the procedure:
as §3
The apparent potencies of MK-801 and its analogs are shown in Table IV; they correlate closely with results from [^3 H]-MK-801 binding studies.

The mark [10] stands for this setting: Table I, read-out: Displacement potencies Ki.
The mark [11] stands for this setting: Table II, read-out: Displacement potencies Ki.

For `CC12NC(Cc3ccccc31)c1ccccc12` (single isomer, unassigned) [L-640,689, 5-methyl-10,11-dihydro-5H-dibenzo[a,d]cyclohepten-5,10-imine], the “Number of animals showing damage” value is on record as 4 in [1] (1 mg/kg i.p. one hour prior), 3 in [1] (10 mg/kg i.p. one hour prior) and 1 in [7]. Also, the Number undamaged in experiment [1] (1 mg/kg i.p. one hour prior) is reported as 11; in [1] (10 mg/kg i.p. one hour prior) it was 12; in [7], 8. For the same molecule, the ED50 in experiment [2] (Meriones unguiculatus, read-out: Depression of Hippocampal [Ca^2+] IC50) was roughly 0.1 mg/kg. In [3], the “shift to the right of the NMDA dose-response curve” value is “approximately 2.4 fold”. Moreover, the “Percentage of animals with full protection” value is on record as 60 in experiment [4] (1 mg/kg i.p. one hour prior to 5 min bilateral occlusion), 80 in experiment [4] (3 mg/kg i.p. one hour prior to 5 min bilateral occlusion) and 70 in experiment [4] (10 mg/kg i.p. one hour prior to 5 min bilateral occlusion). For the same molecule, the “effect on responses to quisqualate” value is “totally unaffected” in the experiment with responses to quisqualate [5] and “much less affected with only the highest dose slightly depressed” in the experiment on responses to quisqualate [8]. Also, the pKi in [6] (setting [10]) was 7.40. The results for the Number dead in the experiment on gerbils (1 mg/kg i.p. one hour prior) and in the experiment on gerbils (10 mg/kg i.p. one hour prior) were 4 and 1, respectively. Besides, the “Number of animals surviving” value in the experiment on gerbils (1 mg/kg i.p. one hour prior) is 11; in the experiment with gerbils (10 mg/kg i.p. one hour prior), 14. Besides, the “effect on responses to kainate” value with responses to kainate is listed as “totally unaffected”.

As for `CC12NC(Cc3ccccc31)c1ccccc12` (single isomer, unassigned) [L-640,690], the pKi in [6] (setting [10]) was 6.49. The Kb in experiment [9] is 300 nM.

Consider `CN1C2(C)c3ccccc3C1(C)c1ccccc12` [L-627,891], for which the pKi in experiment [6] (Table III, read-out: Ki) was 6.66. For the same molecule, the Kb in experiment [9] turned out to be 1130 nM.

For the molecule `CN1C2c3ccccc3C1(C)c1ccccc12` [L-631,876], in experiment [6] (Table III, read-out: Ki), the negative logarithm of the Ki (pKi) was 5.16.

With `CN1C2(C)c3ccccc3C1(C)c1cc(C(F)(F)F)ccc12` [L-631,922], the pKi in [6] (Table III, read-out: Ki) was 3.96.

As for `CC12c3ccccc3C(C)(c3ccccc31)N2C1CC1` [L-632,938], in [6] (Table III, read-out: Ki), the pKi was 5.40. For the same molecule, the Kb in experiment [9] amounted to 640 nM.

As for `CCCN1C2(C)c3ccccc3C1(C)c1ccccc12` [L-633,170], the pKi in experiment [6] (Table III, read-out: Ki) was 6.46. Besides, in [9], the Kb was 300 nM.

On to `CN1C2(C)c3ccccc3C1(C)c1cc(C#N)ccc12` [L-633,239], for which the pKi in experiment [6] (Table III, read-out: Ki) is 4.50.

`CCCCN1C2(C)c3ccccc3C1(C)c1ccccc12` [L-633,744]: the pKi in [6] (Table III, read-out: Ki) is 6.41. Further, in experiment [9], the antagonist dissociation constant (Kb) was found to be 470 nM.

As for `CN1C2Cc3ccccc3C1(C)c1ccccc1C2` [L-637,686], the pKi in [6] (setting [11]) was 5.92. In addition, in [9], the Kb worked out at 2000 nM.

Take `CC12NC(Cc3ccccc31)c1ccccc12` [L-637,939]: in [6] (setting [10]), the pKi was 6.25. In [9], the Kb is 90 nM.

In the case of `CC12NC(Cc3ccccc31)Cc1ccccc12` [L-638,204], the negative logarithm of the Ki (pKi) in experiment [6] (setting [11]) was 6.85. Further, the Kb in [9] is 310 nM.

For the molecule `CN1C2Cc3ccccc3C1(C)c1ccccc12` [L-638,275], the pKi in experiment [6] (setting [10]) is 6.08.

In the case of `CN1C2Cc3ccccc3C1c1ccccc12` [L-638,276], in [6] (setting [10]), the pKi was 4.92.

Turning to `C=CCN1C2Cc3ccccc3C1(C)c1ccccc12` [L-639,015], in [6] (setting [10]), the pKi is 5.47. Besides, in [9], the Kb was determined as 3100 nM.

As to `CCC12NC(Cc3ccccc31)c1ccccc12` [L-639,057], the pKi in experiment [6] (setting [10]) was 7.30. In addition, in [9], the Kb was 500 nM.

For the molecule `CCC12NC(Cc3ccccc31)Cc1ccccc12` [L-639,420], in experiment [6] (setting [11]), the pKi was 6.92. Also, in [9], the antagonist equilibrium constant (Kb) amounted to 200 nM.

Consider `CC12NC(Cc3ccc(Br)cc31)c1ccccc12` [L-639,441], for which the pKi in experiment [6] (setting [10]) was 7.70. In addition, the antagonist dissociation constant (Kb) in experiment [9] came out at 1000 nM.

Take `CC12NC(Cc3ccccc31)c1ccc(Br)cc12` [L-639,442]: in [6] (setting [10]), the pKi was 6.74. In addition, the antagonist dissociation constant (Kb) in experiment [9] came to 400 nM.

Take `Clc1ccc2c(c1)C1NC(Cc3ccccc31)C2` [L-639,450]: the pKi in experiment [6] (setting [11]) was 6.82.

Consider `CCCC12NC(Cc3ccccc31)c1ccccc12` [L-639,470], for which, in experiment [6] (setting [10]), the pKi was 5.07. Moreover, the Kb in experiment [9] is 3000 nM.

Turning to `OCCC12NC(Cc3ccccc31)c1ccccc12` [L-639,902], in experiment [6] (setting [10]), the negative-log Ki (pKi) was 6.59. Moreover, the Kb in [9] stood at 200 nM.

Regarding `CN1C2(C)Cc3ccccc3C1(C)c1ccccc12` [L-640,688], the pKi in experiment [6] (setting [10]) was 6.15. Besides, in experiment [9], the Kb is 870 nM.

In the case of `CC12c3ccccc3CC(c3ccccc31)N2CCO` [L-641,042], the pKi in experiment [6] (setting [10]) was 4.89.

Regarding `COc1ccc2c(c1)CC1NC2(C)c2ccccc21` [L-641,074], the pKi in [6] (setting [10]) was 6.22.

As for `COc1ccc2c(c1)C1Cc3ccccc3C2(C)N1` [L-641,086], the pKi in experiment [6] (setting [10]) is 7.40.

For `CC12NC(Cc3ccccc31)c1cc(O)ccc12` [L-641,285], the pKi in experiment [6] (setting [10]) is 7.30. In experiment [9], the Kb worked out at 100 nM.

Regarding `CC12NC(Cc3cc(O)ccc31)c1ccccc12` [L-641,291], the “Depression of Hippocampal [Ca^2+] Relative Potency (MK-801 = 1)” value in [2] turned out to be 1. In experiment [6] (setting [10]), the pKi was 6.47. Besides, the Kb in experiment [9] turned out to be 510 nM.

For `CC12NC(Cc3ccc(Cl)cc31)c1ccccc12` [L-641,294], in experiment [6] (setting [10]), the pKi is 8.00. In experiment [9], the Kb worked out at 50 nM.

For the molecule `CC12NC(Cc3ccccc31)c1ccc(Cl)cc12` [L-641,368], the pKi in experiment [6] (setting [10]) is 7.10. Moreover, the antagonist equilibrium constant (Kb) in experiment [9] was 1000 nM.

On to `CN1C2Cc3ccccc3C1(C)c1ccccc12` [L-645,114], for which the pKi in [6] (setting [10]) was 6.29.

On to `CCCN1C2Cc3ccccc3C1(C)c1ccccc12` [L-645,156], for which the pKi in [6] (setting [10]) is 6.35.

In the case of `CC12NC(Cc3ccccc31)c1ccc(O)cc12` [L-665,039], the “Depression of Hippocampal [Ca^2+] Relative Potency (MK-801 = 1)” value in experiment [2] is 0.8. The pKi in experiment [6] (setting [10]) is 7.70. Besides, in experiment [9], the Kb came out at 130 nM.
